The target in assay [1] is BTK enzyme (recombinant full-length BTK, hBTK) (Homo sapiens (Human), UniProt Q06187). The experiment in a line: Btk enzyme activity assay, LANCE TR-FRET. The format is biochemical. The note with it: 50 pM hBTK, 2 μM biotin-A5-peptide, 25 μM ATP; 60 minute compound & enzyme incubation; read-out: BTK binding IC50. As to the method:
Btk Enzyme Activity Assay Methods
BTK enzymatic activity was determined with the LANCE (Lanthanide Chelate Excite) TR-FRET (Time-resolved fluorescence resonance energy transfer) assay. […] After 60 minutes incubation with detection reagents, reaction plates were read on a PerkinElmer EnVision plate reader using standard TR-FRET protocol.
(In general: In TR-FRET formats the signal depends on donor and acceptor labels being close together.)

Another assay concerns HeLa cells. The experiment in a line: [3H] Adenosine uptake assay. The format is cell-based. To be noted: accumulation of tritiated adenosine into HeLa cells, compound concentration range 10 μM to 0.032 nM, read-out: ADU inhibition IC50 (adenosine uptake inhibition potency). The essentials:
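HeLa cells in HBSS + 5% FBS preincubated 30 min at ambient temperature with compound (0.25% DMSO), then [3H]adenosine (500 nM stock) added for 60 min. Uptake measured by scintillation proximity counting; IC50 from 4-parameter fit of counts vs log concentration.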

Where two headings read alike, the source gives them in different places.

This is an account of results in patent publication US10087188B2, “Benzamide imidazopyrazine Btk inhibitors” (MERCK SHARP & DOHME CORP., priority 2014, dated 2018).

By IC50 is commonly meant the concentration needed to halve the response being measured.

Sequence of BTK enzyme (recombinant full-length BTK, hBTK) (Q06187 whole entry): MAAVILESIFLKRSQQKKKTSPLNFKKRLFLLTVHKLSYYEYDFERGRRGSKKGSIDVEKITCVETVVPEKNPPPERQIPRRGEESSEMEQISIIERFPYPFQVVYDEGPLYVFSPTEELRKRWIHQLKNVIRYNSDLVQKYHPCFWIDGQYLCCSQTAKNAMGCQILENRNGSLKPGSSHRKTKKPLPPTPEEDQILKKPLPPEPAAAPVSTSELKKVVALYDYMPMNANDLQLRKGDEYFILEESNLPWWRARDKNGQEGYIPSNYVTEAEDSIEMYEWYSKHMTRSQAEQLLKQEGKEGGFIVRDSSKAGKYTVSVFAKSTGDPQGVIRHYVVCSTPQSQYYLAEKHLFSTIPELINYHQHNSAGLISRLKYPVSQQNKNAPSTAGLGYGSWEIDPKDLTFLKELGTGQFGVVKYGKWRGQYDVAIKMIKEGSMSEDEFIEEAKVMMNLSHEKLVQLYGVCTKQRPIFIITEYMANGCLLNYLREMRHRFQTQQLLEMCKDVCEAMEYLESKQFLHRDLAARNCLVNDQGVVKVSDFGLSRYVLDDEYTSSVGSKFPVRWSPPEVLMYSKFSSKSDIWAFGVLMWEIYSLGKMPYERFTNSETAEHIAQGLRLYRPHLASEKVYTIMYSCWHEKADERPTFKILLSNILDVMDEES

Turning to `COc1cc(C(=O)Nc2cc(C(F)(F)F)ccn2)cc(F)c1-c1nc(C2(C)CCC(C)(C(=O)O)CC2)n2ccnc(N)c12` (stereo not shown) [Example 127, 4-[8-amino-1-(2-fluoro-6-methoxy-4-{[4-(trifluoromethyl)pyridin-2-yl]carbamoyl}phenyl)imidazo[1,5-a]pyrazin-3-yl]-1,4-dimethylcyclohexane-carboxylic acid], the IC50 in assay [1] was 1.3 nM; in the assay with HeLa cells (Homo sapiens, HeLa), 10000 nM.

Turning to `C[C@H]1CO[C@@H](c2nc(-c3ccc(C(=O)Nc4cc(C5CC5)ccn4)cc3F)c3c(N)nccn23)CN1[C@H]1CC[C@](C)(C(=O)O)CC1` [Example 210, trans-4-[(2R,5S)-2-(8-amino-1-{4-[(4-cyclopropylpyridin-2-yl)carbamoyl]-2-fluorophenyl}imidazo[1,5-a]pyrazin-3-yl)-5-methylmorpholin-4-yl]-1-methylcyclohexanecarboxylic acid], the IC50 in assay [1] stood at 1.5 nM; in the assay on HeLa cells (Homo sapiens, HeLa) it was 6270 nM.

Take `C[C@H]1CO[C@@H](c2nc(-c3ccc(C(=O)Nc4cc(C(F)F)ccn4)cc3F)c3c(N)nccn23)CN1[C@H]1CC[C@](C)(C(=O)O)CC1` [Example 208, trans-4-{(2R,5S)-2-[8-amino-1-(4-{[4-(difluoromethyl)pyridin-2-yl]carbamoyl}-2-fluorophenyl)imidazo[1,5-a]pyrazin-3-yl]-5-methylmorpholin-4-yl}-1-methylcyclohexanecarboxylic acid]: the IC50 came to 923 nM in assay [1] and 10000 nM in the assay with HeLa cells (Homo sapiens, HeLa).

Take `CC(C)[C@]1(C(=O)O)CC[C@@H](c2nc(-c3ccc(C(=O)Nc4cc(C(F)(F)F)ccn4)cc3)c3c(N)ncc(Cl)n23)C1` [Example 106, (1S.3R)-3-[8-amino-5-chloro-1-(4-{[4-(trifluoromethyl)pyridin-2-yl]carbamoyl}phenyl)imidazo[1,5-a]pyrazin-3-yl]-1-(1-methylethyl) cyclopentane-carboxylic acid]: the IC50 turned out to be 0.74 nM in assay [1] and 781 nM with HeLa cells (Homo sapiens, HeLa).

Take `COc1cc(C(=O)Nc2cc(C(F)(F)F)ccn2)cc(F)c1-c1nc(C23CCC(C(=O)O)(CC2)CC3)n2c(F)cnc(N)c12` [Example 122, 4-[8-amino-5-fluoro-1-(2-fluoro-6-methoxy-4-{[4-(trifluoromethyl)pyridin-2-yl]carbamoyl}phenyl)imidazo[1,5-a]pyrazin-3-yl]bicyclo[2.2.2] octane-1-carboxylic acid]: the IC50 in assay [1] worked out at 0.91 nM; in the assay on HeLa cells (Homo sapiens, HeLa), 10000 nM.

Consider `Nc1nccn2c(C34CCCC(C(=O)O)(CC3)CC4)nc(-c3ccc(C(=O)Nc4cc(C(F)(F)F)ccn4)cc3)c12` [Example 68, 5-[8-amino-1-(4-{[4-(trifluoromethyl)pyridin-2-yl]carbamoyl}phenyl)imidazo[1,5-a]pyrazin-3-yl]bicyclo[3.2.2] nonane-1-carboxylic acid], for which the IC50 came out at 0.23 nM in assay [1] and 274 nM in the assay with HeLa cells (Homo sapiens, HeLa).

Regarding `CC1(C(=O)O)CCC(C)(c2nc(-c3ccc(C(=O)Nc4cc(C(F)(F)F)ccn4)cc3F)c3c(N)nccn23)CC1` (stereo not shown) [Example 134, 4-[8-amino-1-(2-fluoro-4-{[4-(trifluoromethyl)pyridin-2-yl]carbamoyl}phenyl)imidazo[1,5-a]pyrazin-3-yl]-1,4-dimethylcyclohexane-carboxylic acid], the IC50 stood at 0.5 nM in assay [1] and 2770 nM in the assay on HeLa cells (Homo sapiens, HeLa).

For `CCOc1cc(C(=O)Nc2cc(C3CC3)ccn2)cc(F)c1-c1nc(C2(C)CCC(C)(C(=O)O)CC2)n2ccnc(N)c12` (stereo not shown) [Example 131, 4-(8-amino-1-{4-[(4-cyclopropylpyridin-2-yl)carbamoyl]-2-ethoxy-6-fluorophenyl}imidazo [1,5-a]pyrazin-3-yl)-1,4-dimethylcyclohexane-carboxylic acid], the IC50 in assay [1] came out at 0.75 nM; in the assay on HeLa cells (Homo sapiens, HeLa), 10000 nM.

Regarding `C[C@H]1CO[C@@H](c2nc(-c3ccc(C(=O)Nc4cc(C(F)F)ccn4)cc3)c3c(N)ncc(Cl)n23)CN1[C@H]1CC[C@](C)(C(=O)O)CC1` [Example 205, trans-4-{(2R,5S)-2-[8-amino-5-chloro-1-(4-{[4-(difluoromethyl)pyridin-2-yl]carbamoyl}phenyl)imidazo [1,5-a]pyrazin-3-yl]-5-methylmorpholin-4-yl}-1-methylcyclohexanecarboxylic acid], the IC50 in assay [1] is 1.3 nM; in the assay on HeLa cells (Homo sapiens, HeLa), 10000 nM.

As to `CCOc1cc(C(=O)Nc2cc(C(F)(F)F)ccn2)ccc1-c1nc([C@@H]2CC[C@@](C(=O)O)(C(C)C)C2)n2ccnc(N)c12` [Example 60, (1S,3R)-3-[8-amino-1-(2-ethoxy-4-{[4-(trifluoromethyl)pyridin-2-yl]carbamoyl}phenyl)imidazo[1,5-a]pyrazin-3-yl]-1-(1-methylethyl) cyclopentane-carboxylic acid], the IC50 in assay [1] was found to be 7.5 nM; in the assay with HeLa cells (Homo sapiens, HeLa) it was 10000 nM.

As to `CCOc1cc(C(=O)Nc2cc(C(F)(F)F)ccn2)ccc1-c1nc([C@]2(C)CC[C@](C)(C(=O)O)C2)n2ccnc(N)c12` [Example 87, (1S,3R)-3-[8-amino-1-(2-ethoxy-4-{[4-(trifluoromethyl)pyridin-2-yl]carbamoyl}phenyl)imidazo[1,5-a]pyrazin-3-yl]-1,3-dimethylcyclopentane carboxylic acid], the IC50 was 13.9 nM in assay [1] and 9790 nM in the assay on HeLa cells (Homo sapiens, HeLa).

For the compound `COc1cc(C(=O)Nc2cc(C(F)(F)F)ccn2)ccc1-c1nc([C@H]2CN(C(C)(C)C(=O)O)CCO2)n2ccnc(N)c12` [Example 184, 2-{(2R)-2-[8-amino-1-(2-methoxy-4-{[4-(trifluoromethyl)pyridin-2-yl]carbamoyl}phenyl)imidazo [1,5-a]pyrazin-3-yl]morpholin-4-yl}-2-methylpropanoic acid], the IC50 came out at 61.2 nM in assay [1] and 5410 nM in the assay with HeLa cells (Homo sapiens, HeLa).

`C[C@]1(C(=O)O)CC[C@H](N2CCO[C@@H](c3nc(-c4ccc(C(=O)Nc5cc(C6CC6)ccn5)cc4F)c4c(N)nccn34)C2)CC1` [Example 197, trans-4-[(2R)-2-(8-amino-1-{4-[(4-cyclopropylpyridin-2-yl)carbamoyl]-2-fluorophenyl}imidazo[1,5-a]pyrazin-3-yl)morpholin-4-yl]-1-methylcyclohexanecarboxylic acid]: the IC50 in assay [1] amounted to 1.2 nM; in the assay on HeLa cells (Homo sapiens, HeLa) it was 2950 nM.

As for `CC(C)(C(=O)O)C1CCC(c2nc(-c3ccc(C(=O)Nc4cc(C(F)(F)F)ccn4)cc3)c3c(N)nccn23)C1` (stereo not shown) [Example 94, 2-{3-[8-amino-1-(4-{[4-(trifluoromethyl)pyridin-2-yl]carbamoyl}phenyl)imidazo[1,5-a]pyrazin-3-yl]cyclopentyl}-2-methylpropanoic acid], the IC50 is 1.4 nM in assay [1] and 10000 nM in the assay with HeLa cells.

On to `Nc1nccn2c(C34CCC(C(=O)O)(CC3)CC4)nc(-c3ccc(C(=O)Nc4cc(C(F)(F)F)ccn4)cc3)c12` [Example 168, 4-[8-amino-1-(4-{[4-(trifluoromethyl)pyridin-2-yl]carbamoyl}phenyl)imidazo[1,5-a]pyrazin-3-yl]bicyclo[2.2.2] octane-1-carboxylic acid], for which the IC50 in assay [1] was determined as 0.13 nM; in the assay with HeLa cells (Homo sapiens, HeLa) it was 308 nM.

For the compound `C[C@]1(C(=O)O)CC[C@H](N2CCO[C@@H](c3nc(-c4ccc(C(=O)Nc5cc(C(F)F)ccn5)cc4)c4c(N)ncc(Cl)n34)C2)CC1` [Example 195, trans-4-{(2R)-2-[8-amino-5-chloro-1-(4-{[4-(difluoromethyl)pyridin-2-yl]carbamoyl}phenyl)imidazo [1,5-a]pyrazin-3-yl]morpholin-4-yl}-1-methylcyclohexanecarboxylic acid], the IC50 in assay [1] was found to be 1 nM; in the assay on HeLa cells (Homo sapiens, HeLa), 2440 nM.

With `Nc1nccn2c(C34CCC(C(=O)O)(CC3)C4)nc(-c3ccc(C(=O)Nc4cc(C(F)(F)F)ccn4)cc3)c12` [Example 65, 4-[8-amino-1-(4-{[4-(trifluoromethyl)pyridin-2-yl]carbamoyl}phenyl)imidazo[1,5-a]pyrazin-3-yl]bicyclo[2.2.1] heptane-1-carboxylic acid], the IC50 in assay [1] was 0.6 nM; with HeLa cells (Homo sapiens, HeLa), 6060 nM.

With `CN1CC[C@H](c2nc(-c3ccc(C(=O)Nc4cc(C(F)(F)F)ccn4)cc3)c3c(N)nccn23)C[C@@H]1C(=O)O` [Example 83, (2R.4S)-4-[8-amino-1-(4-{[4-(trifluoromethyl)pyridin-2-yl]carbamoyl}phenyl)imidazo[1,5-a]pyrazin-3-yl]-1-methylpiperidine-2-carboxylic acid], the IC50 in assay [1] turned out to be 10.2 nM; in the assay with HeLa cells (Homo sapiens, HeLa), 1140 nM.

With `C[C@@]1(C(=O)O)CCC[C@H](c2nc(-c3ccc(C(=O)Nc4cc(C5CC5)ccn4)cc3F)c3c(N)nccn23)C1` [Example 160, (1R,3S)-3-(8-amino-1-{4-[(4-cyclopropylpyridin-2-yl)carbamoyl]-2-fluorophenyl}imidazo [1,5-a]pyrazin-3-yl)-1-methylcyclohexane-carboxylic acid], the IC50 in assay [1] worked out at 0.96 nM; in the assay with HeLa cells (Homo sapiens, HeLa) it was 4510 nM.

As for `CC(C)C1(C(=O)O)CCC(C)(c2nc(-c3ccc(C(=O)Nc4cc(C(F)(F)F)ccn4)cc3)c3c(N)nccn23)C1` (stereo not shown) [Example 145, 3-[8-amino-1-(4-{[4-(trifluoromethyl)pyridin-2-yl]carbamoyl}phenyl)imidazo[1,5-a]pyrazin-3-yl]-3-methyl-1-(1-methylethyl) cyclopentane-carboxylic acid], the IC50 came to 57.2 nM in assay [1] and 10000 nM in the assay on HeLa cells.
